Entries after “also recorded” stand apart in the source; their conditions may differ. Counter-ions that a name gives are not always drawn. Like-named read-outs stand apart in the source and are kept apart here.
What was measured:
Huh-7.5.1 cells [1] = conditions: Huh-7.5 or Huh-7.5.1 cells, RT-qPCR experiments
HM175/18f virus [2] = conditions: for IC50: read-out: IC50, HAV replication by RT-qPCR
HM175/18f virus [3] = experiment: microbe, parasite or virus in culture; conditions: Hepatovirus A
in vitro [4] = conditions: human
18f-NLuc reporter virus [5] = conditions: for IC50: read-out: IC50, HAV replication by NLuc
Huh-7.5.1 cells [6] = conditions: 10 µM
18f-NLuc reporter virus [7] = experiment: microbe, parasite or virus in culture; format: cell-based, Hepatitis A virus; conditions: for activity at 10 µM: Hepatovirus A, Huh-7.5.1, 72 h, read-out: Normalized HAV production
HAV-FLuc = experiment: microbe, parasite or virus in culture; format: cell-based, Hepatitis A virus
in vitro [8] = conditions: human, CC50, Huh-7.5 cells, cellular ATP assay
PeV-A1-NLuc = format: cell-based, human parechovirus A1; conditions: A549 cells
RV-B14-FLuc = format: cell-based, rhinovirus B14; conditions: up to 1 µM, Huh-7.5 cells
HAV [9] = conditions: FRhK4 fetal rhesus kidney cells; ref 16 Aragonès et al.; read-out: IC50, HAV replication; cited from earlier work
PV1-NLuc [10] = experiment: microbe, parasite or virus in culture; format: cell-based, type 1 poliovirus; conditions: Enterovirus C, FRhK-4, 16 h, read-out: IC50, PV1-NLuc replication
ACC1 = experiment: Immunoblot of ACC1 in Huh-7.5 cells; format: cell-based, human; conditions: 200 nM, 24 hours
18f-NLuc reporter virus [11] = format: cell-based, Hepatitis A virus
HAV [12] = experiment: microbe, parasite or virus in culture; format: cell-based, Hepatitis A virus; conditions: Hepatovirus A; 30 nM, Huh-7.5.1 cells; read-out: Inhibition of infectious virus released
18f-NLuc reporter virus [13] = experiment: microbe, parasite or virus in culture; format: cell-based, Hepatitis A virus; conditions: read-out: IC50, HAV replication by NLuc
Method: Cells were lysed in 1× passive lysis buffer (Promega, #E1941) for 15 min at room temperature, then lysates were transferred to opaque white 96-well plates (Corning, #3912). NLuc activity was quantified using the NLuc GLOW Assay kit (Nanolight Technology, #325), and FLuc assays were carried out with the Luciferase Assay System (Promega, E1500). Luminescence was measured using a Biotek Synergy II multi-mode plate reader (BioTek Instruments).

18f virus = format: cell-based, Hepatitis A virus; conditions: cells infected 72 h, then treated 24 h
3C^pro [14] = format: cell-based, Hepatitis A virus
Huh-7.5.1 cells [15] = experiment: Cell viability in the chemical screen (Cell TiterGlo); conditions: 10 µM compound, 72 h
3C^pro [16] = format: cell-based, Hepatitis A virus; remark: listed apart in the source
18f-NLuc reporter virus [17] = experiment: microbe, parasite or virus in culture; conditions: Hepatovirus A, Huh7.5, 48 h, read-out: IC50, HAV replication by NLuc
in vitro [18] = conditions: rhesus monkey, CC50, FRhK4 cells
HAV IRES = format: cell-based, Hepatitis A virus; conditions: 100 nM
18f-NLuc reporter virus [19] = experiment: microbe, parasite or virus in culture; format: cell-based, Hepatitis A virus; conditions: Hepatovirus A, FRhK-4, 48 h, read-out: IC50, HAV replication by NLuc
PV1-NLuc [20] = experiment: microbe, parasite or virus in culture; format: cell-based, type 1 poliovirus; conditions: Enterovirus C, Huh7.5, 16 h, read-out: IC50, PV1-NLuc replication
HAV [21] = experiment: microbe, parasite or virus in culture; format: cell-based, Hepatitis A virus; conditions: read-out: IC50, HAV replication by RT-qPCR
poliovirus = conditions: HeLa S3 cells; read-out: IC50, poliovirus replication; cited from earlier work
HAV [22] = conditions: cited from earlier work
293T cells = experiment: Cytotoxicity in 293T cells
[23] = tested on: mouse-passaged HM175 strain of HAV; parameters: species or system Ifnar1^-/- mice; conditions: in vivo, ip
[24] = Huh-7.5.1, read-out: IC50, HAV replication by RT-qPCR

## COc1cccc(-c2cc(F)ccc2[C@H]2Cc3nc(N)nc(C)c3C(=O)N2)n1 [HSP990]
Huh-7.5.1 cells [1]
  CC50: 56.9 nM
HM175/18f virus [2]
  IC50: 2.2 nM
HM175/18f virus [2]; targeted screen of heat shock protein inhibitors, RT-qPCR
  Blocking of HAV replication (in words): highly active

## CC(C)c1cc(-c2n[nH]c(=O)n2-c2ccc3c(ccn3C)c2)c(O)cc1O [STA9090]
HM175/18f virus [3]; [24]
  IC50: 12.1 nM
HM175/18f virus [2]
  Blocking of HAV replication (in words): highly active
In vitro [4]
  CC50: 147 nM

## N#Cc1ccc(COC[C@H]2O[C@@H](n3c(NCc4ccc(Cl)c(Cl)c4)nc4c(N)ncnc43)[C@H](O)[C@@H]2O)cc1 [VER155008]
18f-NLuc reporter virus [5]
  Anti-HAV activity relative to CC50 (in words): only at concentrations close to their CC50
  IC50: 3320 nM
Huh-7.5 cells
  CC50: > 10000 nM

## NC12CC3CC(CC(C3)C1)C2 [Amantadine hydrochloride]
Huh-7.5.1 cells [6]
  Viability Percent DMSO: 111 Percent DMSO
18f-NLuc reporter virus [7]
  activity at 10 µM: 87%

## COC(=O)N[C@H](C(=O)NNC[C@H](O)[C@H](Cc1ccccc1)NC(=O)[C@@H](NC(=O)OC)C(C)(C)C)C(C)(C)C [Des(benzylpyridyl) Atazanavi]
Huh-7.5.1 cells [6]
  Viability Percent DMSO: 159 Percent DMSO
18f-NLuc reporter virus [7]
  Normalized HAV production: 0.67

## NCCCNCCCCNCCCN [Spermine]
Huh-7.5.1 cells [6]
  Viability Percent DMSO: 112 Percent DMSO
18f-NLuc reporter virus [7]
  activity at 10 µM: 96%

## Cc1ccc(NC(=O)C(=O)NC2CC(C)(C)NC(C)(C)C2)cc1 [YYA-021]
Huh-7.5.1 cells [6]
  Viability Percent DMSO: 121 Percent DMSO
18f-NLuc reporter virus [7]
  Normalized HAV production: 1.03

## S=C(NCCc1ccccn1)Nc1ccc(Br)cn1 [Trovirdine]
Huh-7.5.1 cells [6]
  Viability Percent DMSO: 165 Percent DMSO
18f-NLuc reporter virus [7]
  activity at 10 µM: 71%

## CCc1cc(C(N)=O)ccc1-n1nc(C(C)C)c2c(-n3cnc(-c4cnn(C)c4)c3)ccnc21 [TAS116]
HM175/18f virus [3]; [24]
  IC50: 84.3 nM
HM175/18f virus [2]
  Blocking of HAV replication (in words): highly active
In vitro [4]
  CC50: 835 nM

## CC(C)(C)Oc1cccc2nc(N)nc(N)c12 [HZ-1157]
Huh-7.5.1 cells [6]
  Viability Percent DMSO: 16 Percent DMSO
18f-NLuc reporter virus [7]
  Normalized HAV production: 2.12

## Vitamin E
Huh-7.5.1 cells [6]
  Viability Percent DMSO: 97 Percent DMSO
18f-NLuc reporter virus [7]
  Normalized HAV production: 1.19

## JG98
18f-NLuc reporter virus [5]
  Anti-HAV activity relative to CC50 (in words): only at concentrations close to their CC50
  IC50: 534 nM
Huh-7.5 cells
  CC50: > 1000 nM

## COC1=C2C[C@@H](C)C[C@H](OC)[C@H](O)[C@@H](C)/C=C(\C)[C@H](OC(N)=O)[C@@H](OC)/C=C\C=C(/C)C(=O)NC(=CC1=O)C2=O [Geldanamycin]
HAV-FLuc
  Replication of subgenomic HAV RNA replicon (in words): potently inhibited
HAV-FLuc; Hepatovirus A, Huh7.5, 24 h, read-out: IC50, HAV-FLuc replicon
  IC50: 29.1 nM
In vitro [8]
  CC50: 5100 nM
HM175/18f virus [3]; Huh7.5, in Homo sapiens, read-out: 50% inhibitory concentration, HAV replication
  IC50: 8.7 to 11.8 nM
HM175/18f virus [3]; [24]
  IC50: 11.8 nM
PeV-A1-NLuc
  Replication of subgenomic human parechovirus A1 replicon (in words): minimally inhibits; also recorded: resistant
RV-B14-FLuc
  Luciferase expression from subgenomic rhinovirus B14 replicon (in words): does not inhibit
RV-B14-FLuc; listed as geldanamycin
  Luciferase expression from subgenomic rhinovirus B14 replicon (in words): fails to inhibit
HAV [9]
  IC50: 5370 nM
PV1-NLuc [10]
  IC50: > 10000 nM
ACC1
  Abundance of ACC1: did not reduce
18f-NLuc reporter virus [11]
  NLuc expression at 48 hours post-infection: neither case did either HSP90 inhibitor reduce NLuc expression
HAV [12]
  inhibition at 0.03 µM: > 50%
18f-NLuc reporter virus [13]; Hepatovirus A, HEK-293T
  IC50: 4.7 nM
18f virus
  VP1 and 3ABC proteins in infected cell lysates: concentration-related decreases
3C^pro [14]; 0.1 µM
  Inhibition of 3ABCD processing: no inhibition
3C^pro [14]; 1 µM
  Amount of 3ABC product from HA-3ABCD: modestly reduced
Huh-7.5.1 cells [15]
  Viability Percent DMSO: 61 Percent DMSO
3C^pro [16]
  Cleavage of GFP-MAVS by 3ABC: no impact
18f-NLuc reporter virus [17]
  IC50: 8.7 nM
In vitro [18]
  CC50: > 10000 nM
In vitro [18]; cellular ATP assay
  CC50: 59000 nM
HAV IRES
  GFP synthesis from circRNA HAV IRES reporter: had no effect
HAV IRES; listed as geldanamycin
  GFP synthesis from circRNA HAV IRES reporter: neither geldanamycin nor 17-AAG inhibited
18f-NLuc reporter virus [19]
  IC50: 804 nM
PV1-NLuc [20]
  IC50: 183 nM
HAV [21]; Hepatovirus A
  IC50: 4.3 nM
18f-NLuc reporter virus [7]
  activity at 10 µM: 0.0718%
poliovirus
  IC50: 110 nM

## NC(=O)c1ncn([C@@H]2O[C@H](CO)[C@@H](O)[C@H]2O)n1 [Ribavirin]
Huh-7.5.1 cells [6]
  Viability Percent DMSO: 117 Percent DMSO
18f-NLuc reporter virus [7]
  activity at 10 µM: 112%

## C=C1CC[C@@H]2[C@](C)(COC(=O)CCC(=O)[O-])[C@H](OC(=O)CCC(=O)O)CC[C@@]2(C)[C@@H]1/C=C/C1=CCOC1=O.[K+] [Dehydroandrographolide Succinate Potasium Salt]
Huh-7.5.1 cells [6]
  Viability Percent DMSO: 102 Percent DMSO
18f-NLuc reporter virus [7]
  Normalized HAV production: 1.19

## Nc1nc(=O)n([C@@H]2CS[C@H](CO)O2)cc1F [Emtricitabine]
Huh-7.5.1 cells [6]
  Viability Percent DMSO: 123 Percent DMSO
18f-NLuc reporter virus [7]
  activity at 10 µM: 120%

## COc1ccccc1[C@H](Cn1c(=O)n(C(C)(C)C(=O)O)c(=O)c2c(C)c(-c3ncco3)sc21)OC1CCOCC1 [firsocostat]
HAV [22]
  HAV replication in cell culture (in words): potently inhibits

## C=CCNC1=C2C[C@@H](C)C[C@H](OC)[C@H](O)[C@@H](C)/C=C(\C)[C@H](OC(N)=O)[C@@H](OC)/C=C\C=C(/C)C(=O)NC(=CC1=O)C2=O [17-AAG]
Huh-7.5.1 cells [1]
  CC50: 418 nM
293T cells
  CC50: > 1000 nM
18f-NLuc reporter virus [11]
  NLuc expression at 48 hours post-infection: neither case did either HSP90 inhibitor reduce NLuc expression
18f-NLuc reporter virus [13]; 293T cells
  IC50: 11.7 nM
HM175/18f virus [2]; hepatocyte-derived cells, RT-qPCR
  Fold by which IC50 is below CC50: approximately 30 fold
HM175/18f virus [2]
  IC50: 14.2 nM
HAV IRES
  GFP synthesis from circRNA HAV IRES reporter: neither geldanamycin nor 17-AAG inhibited; also recorded: had no effect
[23]
  Area occupied by IBA-positive cells in liver section: significantly reduced
  Increase in serum alanine aminotransferase (ALT) activity versus vehicle: significantly lower
  Inflammatory cell infiltrates in liver sections (H&E): notably fewer and smaller in size
  Number of IBA1-positive cells in liver section: significantly reduced
  Viral RNA in feces versus vehicle: significantly reduced
  Viral RNA in liver versus vehicle: significantly reduced
  Viral RNA in serum versus vehicle: significantly reduced
HAV [21]; PH5CH8 cells
  IC50: 3.2 nM

## CC(C)CN(C[C@@H](O)[C@H](Cc1ccccc1)NC(=O)O[C@H]1CO[C@H]2OCC[C@H]21)S(=O)(=O)c1ccc(N)cc1 [Darunavir]
Huh-7.5.1 cells [6]
  Viability Percent DMSO: 106 Percent DMSO
18f-NLuc reporter virus [7]
  activity at 10 µM: 99%
